Experimental findings from patent publication US9024041B2, “P38 MAP kinase inhibitors” (Respivert Ltd., priority 2010, dated 2015) are described below.

In data set [1] the target is T1, p38 MAPKα isoform (MAPK14: Invitrogen) (Homo sapiens, UniProt Q16539).
T1 construct: purchased Invitrogen
The data set can be described thus: p38 MAPKα enzyme inhibition assay (FRET, Z-LYTE, via MAPKAP-K2 activation). Particulars: 2 hr pre-incubation, ATP 10.0 μM; read-out: Enzyme Inhibition IC50 p38α. In kind it is biochemical.
Description: The enzyme inhibitory activities of compounds disclosed herein were determined by fluorescence resonance energy transfer (FRET) using synthetic peptides labelled with both donor and acceptor fluorophores (Z-LYTE, Invitrogen Ltd., Paisley, UK). Recombinant, phosphorylated p38 MAPKγ (MAPK12:Invitrogen) was diluted in HEPES buffer, mixed with the test compound at the desired final concentrations and incubated for 2 hr at RT. The FRET peptide (2 μM) and ATP (100 μM) were added to the enzyme/compound mixture and incubated for 1 hr. Development reagent (protease) was added for 1 hr prior to detection in a fluorescence microplate reader (Varioskan® Flash, ThermoFisher Scientific). The site-specific protease cleaves non-phosphorylated peptide only and eliminates the FRET signal. Phosphorylation levels of each reaction were calculated using the ratio of coumarin emission (donor) over fluorescein emission (acceptor) for which high ratios indicate high phosphorylation and low ratios indicate low phosphorylation levels.
For the p38 MAPKα isoform (MAPK14: Invitrogen), enzyme activity was evaluated indirectly by determining the level of activation/phosphorylation of the down-stream molecule, MAPKAP-K2. The p38 MAPKα protein was mixed with the test compound for 2 hr at RT. […] Development reagent was then added and the mixture incubated for 1 hr before detection by fluorescence completed the assay protocol.

In data set [2] the test system is LPS-induced TNFα release in d-U937 cells. Kind of data set: LPS-induced TNFα release in d-U937 cells. Particulars: Homo sapiens, dU937, 4 h; read-out: LPS/TNFα REC50 d-U937. It counts as cell-based. An outline of the steps:
(§1)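 U937 cells differentiated with PMA (100 ng/mL, 48–72 hr), pre-incubated with compound 2 hr, then stimulated with 0.1 μg/mL E. coli O111:B4 LPS for 4 hr. Supernatant TNFα and IL-8 measured by sandwich ELISA; REC50 (TNFα) and IC50 (IL-8 inhibition vs vehicle) taken from concentration-response curves.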

Data set [3] has as its system LPS-induced IL-8 release in d-U937 cells. Kind of data set: LPS-induced IL-8 release in d-U937 cells. It counts as cell-based. As to conditions: Homo sapiens, dU937, 0.1 μg/mL LPS, 4 hr. An outline of the steps:
as §1

The subject of data set [4] is LPS-induced neutrophil accumulation in Balb/c mice. The data set can be described thus: LPS-induced neutrophil accumulation in mice. It counts as in vivo. Particulars: for % inhibition of Influx / Neutrophil numbers in BAL: 0.2 mg/mL intra tracheal, 8 h pre-dose before LPS; for inhibitory effects versus neutrophil accumulation into the BALF (in words): dosed 8 hr prior to LPS challenge. On the procedure:
LPS-Induced Neutrophil Accumulation in Mice
Non-fasted Balb/c mice were dosed by the intra tracheal route with either vehicle, or the test substance at the indicated times (within the range 2-12 hr) before stimulation of the inflammatory response by application of an LPS challenge. At T=0, mice were placed into an exposure chamber and exposed to LPS. After a further 8 hr the animals were anesthetized, their tracheas cannulated and BALF extracted by infusing and then withdrawing from their lungs 1.0 mL of PBS via the tracheal catheter. Total and differential white cell counts in the BALF samples were measured using a Neubaur haemocytometer. Cytospin smears of the BALF samples were prepared by centrifugation at 200 rpm for 5 min at RT and stained using a DiffQuik stain system (Dade Behring). Cells were counted using oil immersion microscopy.

Data set [5] deals with T2, Recombinant, phosphorylated p38 MAPKγ (MAPK12:Invitrogen) (Homo sapiens, UniProt P53778).
T2 construct: purchased Invitrogen
T2 sequence (P53778 1-367): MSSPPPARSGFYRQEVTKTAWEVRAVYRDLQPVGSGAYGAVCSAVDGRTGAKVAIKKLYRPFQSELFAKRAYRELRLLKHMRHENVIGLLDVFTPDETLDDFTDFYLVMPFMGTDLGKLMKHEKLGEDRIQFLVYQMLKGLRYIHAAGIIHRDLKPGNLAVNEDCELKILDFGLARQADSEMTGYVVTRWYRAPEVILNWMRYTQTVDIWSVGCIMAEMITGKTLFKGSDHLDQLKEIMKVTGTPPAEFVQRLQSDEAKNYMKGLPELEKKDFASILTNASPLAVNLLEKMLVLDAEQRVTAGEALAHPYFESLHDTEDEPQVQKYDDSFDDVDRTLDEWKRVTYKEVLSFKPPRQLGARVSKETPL
The data set can be described thus: p38 MAPKγ enzyme inhibition assay (FRET, Z-LYTE). In kind it is biochemical. Particulars: 2 hr pre-incubation, ATP 100 μM; read-out: Enzyme Inhibition IC50 p38γ.

Data set [6] relates to Poly I:C-induced ICAM-1 expression in BEAS2B cells. The data set can be described thus: Poly I:C-induced ICAM-1 induction in BEAS2B cells. It counts as cell-based. As to conditions: Homo sapiens, BEAS-2B, poly I:C 1 μg/mL, 18 hr, read-out: PolyI:C/ICAM1 IC50 BEAS2B. Summed up: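 Human bronchial epithelial BEAS2B cells were pre-incubated with compound for 2 h, then transfected with poly I:C at 1 μg/mL. Surface ICAM-1 was measured 18 h later by cell-based ELISA (OD450–655), normalised to crystal-violet cell number (OD595). IC50 was taken from the concentration–response curve against vehicle.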

In data set [7] the test system is Differentiated U937 cells. Kind of data set: MTT assay: cell viability on exposure to test compounds. In kind it is cell-based, human. Particulars: percentage loss of cell viability vs vehicle; for MTT Assay (Viability) 4 h d-U937: 5% FCS; for MTT Assay (Viability) 24 h d-U937: 10% FCS. Summed up:
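Differentiated U937 cells were pre-incubated with compound for either 4 h in 5% FCS or 24 h in 10% FCS, then given MTT for 1 h. Formazan was dissolved in DMSO and read at 550 nm. Viability loss is expressed as % versus 0.5% DMSO vehicle, so an apparent gain appears as a negative value.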

The test system of data set [8] is LPS-induced TNFα release in THP-1 cells. Kind of data set: LPS-induced TNFα release in THP-1 cells. Particulars: Homo sapiens, 3 μg/mL LPS, 4 hr. It counts as cell-based. An outline of the steps: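 Human monocytic cells were stimulated with 3 μg/mL E. coli LPS for 4 hr. Supernatant TNFα was measured by sandwich ELISA. Inhibition was taken relative to vehicle control, and IC50 derived from the concentration-response curve.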

Entries after “also recorded” stand apart in the source; their conditions may differ. Marks after values point to notes of the source that are not given here. Where only a bound is given, the exact number is not on record here.

T1 sequence (Q16539 whole entry, canonical isoform): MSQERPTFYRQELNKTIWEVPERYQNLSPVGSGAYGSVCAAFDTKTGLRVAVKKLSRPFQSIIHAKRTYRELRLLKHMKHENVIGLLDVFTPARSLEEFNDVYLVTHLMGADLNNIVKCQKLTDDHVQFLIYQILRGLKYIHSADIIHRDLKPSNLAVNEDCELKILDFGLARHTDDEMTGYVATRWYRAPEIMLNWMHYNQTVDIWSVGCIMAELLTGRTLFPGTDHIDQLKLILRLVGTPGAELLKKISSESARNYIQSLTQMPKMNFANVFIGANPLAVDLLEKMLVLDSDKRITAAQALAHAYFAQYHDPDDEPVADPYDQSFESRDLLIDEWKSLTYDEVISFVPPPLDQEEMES

In the case of `COCC(=O)Nc1cc(Oc2ccc(NC(=O)Nc3cc(C(C)(C)C)nn3-c3ccc(CO)c(Cl)c3)c3ccccc23)ccn1` [Example 13, N-(4-(4-(3-(3-tert-Butyl-1-(3-chloro-4-(hydroxymethyl)phenyl)-1H-pyrazol-5-yl)ureido)naphthalen-1-yloxy)pyridin-2-yl)-2-methoxyacetamide], the IC50 in data set [1] worked out at 10.7 nM; in data set [3] it was 8.6 nM; in data set [5], 168 nM; in data set [6] it was 2.3 nM; in data set [8], 1.3 nM. The EC50 in data set [2] stood at 0.03 nM. Besides, in data set [4], the “% inhibition of Influx” value came out at 43%. For the same molecule, in data set [4], the “Neutrophil numbers in BAL” value was 9.9 ± 1.2 × 10^5/mL. In data set [4], the “inhibitory effects versus neutrophil accumulation into the BALF (in words)” value is recorded as “inhibitory effects; also recorded: particularly marked”. Further, the “MTT Assay (Viability) 4 h d-U937” value in data set [7] (1 μg/mL) is recorded as −28.5%. Also, the “MTT Assay (Viability) 24 h d-U937” value in data set [7] (1 μg/mL) is 27.0%.

Take `CN(C)C(=O)Nc1cc(Oc2ccc(NC(=O)Nc3cc(C(C)(C)C)nn3-c3ccc(O)cc3)c3ccccc23)ccn1` [Example 34, 3-(4-(4-(3-(3-tert-butyl-1-(4-hydroxyphenyl)-1H-pyrazol-5-yl)ureido)naphthalen-1-yloxy)pyridin-2-yl)-1,1-dimethylurea]: the IC50 in data set [1] came out at 2 nM; in data set [3], 1.9 nM; in data set [5], 89.3 nM; in data set [6] it was 4.4 nM; in data set [8] it was 1.5 nM. In addition, in data set [4], the “% inhibition of Influx” value was 14%. For the same molecule, the “Neutrophil numbers in BAL” value in data set [4] is 12.0 ± 1.7 × 10^5/mL. In addition, the “inhibitory effects versus neutrophil accumulation into the BALF (in words)” value in data set [4] is given as “inhibitory effects”. Moreover, the “MTT Assay (Viability) 4 h d-U937” value in data set [7] (1 μg/mL) was −25.8%. For the same molecule, the “MTT Assay (Viability) 24 h d-U937” value in data set [7] (1 μg/mL) is −43.4%.

Regarding `COCC(=O)Nc1cc(COc2ccc(NC(=O)Nc3cc(C(C)(C)C)nn3-c3ccc(OC)cc3)c(C)c2C)ccn1` [Example 59, N-(4-((4-(3-(3-tert-butyl-1-(4-methoxyphenyl)-1H-pyrazol-5-yl)ureido)-2,3-dimethylphenoxy)methyl)pyridin-2-yl)-2-methoxy acetamide], the IC50 turned out to be 12.7 nM in data set [1]; 165 nM in data set [3]; 4150 nM in data set [5]; 277 nM in data set [6]; 242 nM in data set [8]. Besides, the EC50 in data set [2] was 104 nM. The “MTT Assay (Viability) 4 h d-U937” value in data set [7] (1 μg/mL) worked out at 11.3%. Moreover, in data set [7] (1 μg/mL), the “MTT Assay (Viability) 24 h d-U937” value is on record as 0.9%.

In the case of `CNC(=O)Nc1cc(COc2ccc(NC(=O)Nc3cc(C(C)(C)C)nn3-c3ccc(OC)cc3)c(C)c2C)ccn1` [Example 60, 1-(4-((4-(3-(3-tert-butyl-1-(4-methoxyphenyl)-1H-pyrazol-5-yl)ureido)-2,3-dimethylphenoxy)methyl)pyridin-2-yl)-3-methylurea], the IC50 is 13 nM in data set [1]; 364 nM in data set [3]; over 17500 nM in data set [5]; over 175 nM in data set [6]; 122 nM in data set [8]. Also, in data set [2], the EC50 stood at 24.3 nM. Moreover, the “MTT Assay (Viability) 4 h d-U937” value in data set [7] (1 μg/mL) was 17.2%. Moreover, the “MTT Assay (Viability) 24 h d-U937” value in data set [7] (1 μg/mL) is on record as −0.2%.

With `COCC(=O)Nc1cc(COc2ccc(NC(=O)Nc3cc(C(C)(C)C)nn3-c3ccc(OC)nc3)c(C)c2C)ccn1` [Example 61, N-(4-((4-(3-(3-tert-butyl-1-(6-methoxypyridin-3-yl)-1H-pyrazol-5-yl)ureido)-2,3-dimethylphenoxy)methyl)pyridin-2-yl)-2-methoxy acetamide], the IC50 in data set [1] is 12.8 nM; in data set [3], 204 nM; in data set [5], 2810 nM; in data set [6] it was over 1700 nM; in data set [8] it was 1260 nM. Further, in data set [2], the EC50 was 120 nM. In addition, the “MTT Assay (Viability) 4 h d-U937” value in data set [7] (1 μg/mL) was 3.5%. Besides, the “MTT Assay (Viability) 24 h d-U937” value in data set [7] (1 μg/mL) is recorded as −5.1%.

On to `CNC(=O)Nc1cc(Oc2ccc(NC(=O)Nc3cc(C(C)(C)C)nn3-c3ccc(O)nc3)c(C)c2C)ccn1` [Example 62, 1-(4-(4-(3-(3-tert-butyl-1-(6-hydroxypyridin-3-yl)-1H-pyrazol-5-yl)ureido)-2,3-dimethylphenoxy)pyridin-2-yl)-3-methylurea], for which the IC50 in data set [1] was determined as 14.8 nM; in data set [3] it was 14.4 nM; in data set [5], 20.3 nM; in data set [6] it was 24.6 nM; in data set [8], 2.6 nM. For the same molecule, in data set [2], the EC50 amounted to 2.5 nM. In data set [7] (1 μg/mL), the “MTT Assay (Viability) 4 h d-U937” value is listed as −1.1%. Further, in data set [7] (1 μg/mL), the “MTT Assay (Viability) 24 h d-U937” value is on record as −2.6%.

As to `CNC(=O)Nc1cc(COc2ccc(NC(=O)Nc3cc(C(C)(C)C)nn3-c3ccc(OC)nc3)c(C)c2C)ccn1` [Example 63, 1-(4-((4-(3-(3-tert-butyl-1-(6-methoxypyridin-3-yl)-1H-pyrazol-5-yl)ureido)-2,3-dimethylphenoxy)methyl)pyridin-2-yl)-3-methylurea], the IC50 in data set [1] is 16.2 nM; in data set [3] it was 125 nM; in data set [5], over 17500 nM; in data set [6] it was 178 nM; in data set [8], 28.3 nM. Besides, the EC50 in data set [2] was 26.3 nM. Further, in data set [7] (1 μg/mL), the “MTT Assay (Viability) 4 h d-U937” value was found to be 32.5%. For the same molecule, the “MTT Assay (Viability) 24 h d-U937” value in data set [7] (1 μg/mL) is reported as 21.2%.

As to `COCC(=O)Nc1cc(Cc2ccc(NC(=O)Nc3cc(C(C)(C)C)nn3-c3ccc(C)cc3)c3ccccc23)ccn1` [Example 64, N-(4-((4-(3-(3-tert-butyl-1-(p-tolyl)-1H-pyrazol-5-yl)ureido)naphthalen-1-yl)methyl)pyridin-2-yl)-2-methoxyacetamide], the IC50 came to 17.1 nM in data set [1]; 7.4 nM in data set [3]; 1650 nM in data set [5]; 20.1 nM in data set [6]; 10.9 nM in data set [8]. Besides, the EC50 in data set [2] worked out at 2.1 nM. Besides, the “MTT Assay (Viability) 4 h d-U937” value in data set [7] (10 μg/mL) is listed as −3.7^b %. For the same molecule, the “MTT Assay (Viability) 24 h d-U937” value in data set [7] (10 μg/mL) is 61.6^b %.

As for `COCCOCC(=O)Nc1cc(Cc2ccc(NC(=O)Nc3cc(C(C)(C)C)nn3-c3ccc(C)cc3)c3ccccc23)ccn1` [Example 65, N-(4-((4-(3-(3-tert-butyl-1-p-tolyl-1H-pyrazol-5-yl)ureido)naphthalen-1-yl)methyl)pyridin-2-yl)-2-(2-methoxyethoxy)acetamide], the IC50 in data set [1] was 1.2 nM; in data set [3] it was 18.9 nM; in data set [5] it was 275 nM; in data set [6], 62.7 nM; in data set [8] it was 10.7 nM. In addition, in data set [2], the EC50 stood at 10.9 nM. For the same molecule, in data set [7] (10 μg/mL), the “MTT Assay (Viability) 4 h d-U937” value is −1.5^b %. The “MTT Assay (Viability) 24 h d-U937” value in data set [7] (10 μg/mL) is on record as 55.9^b %.

For `COCC(=O)Nc1cc(C(=O)c2ccc(NC(=O)Nc3cc(C(C)(C)C)nn3-c3ccc(C)cc3)c3ccccc23)ccn1` [Example 66, N-(4-(4-(3-(3-tert-butyl-1-p-tolyl-1H-pyrazol-5-yl)ureido)-1-naphthoyl)pyridin-2-yl)-2-methoxyacetamide], the IC50 in data set [1] is 7.3 nM; in data set [3], 171 nM; in data set [5], 7360 nM; in data set [6], 48.4 nM; in data set [8], 2.9 nM. The EC50 in data set [2] came to 1 nM. For the same molecule, the “MTT Assay (Viability) 4 h d-U937” value in data set [7] (10 μg/mL) is recorded as 11.0^b %. Moreover, in data set [7] (10 μg/mL), the “MTT Assay (Viability) 24 h d-U937” value is 71.1^b %.
